The nature of data set [1]: logP by HPLC on reversed-phase columns (C 18), EEC Directive 79/831 Annex V.A8. Type of data set: physicochemical. Particulars: for chromatographic logP: reversed-phase C18 HPLC column, read-out: log P. The source says:
[table] The calibration is effected with unbranched alkan-2-ones (having 3 to 16 carbon atoms) with known logP values (logP values determined on the basis of the retention times by linear interpolation between two successive alkanones).

For data set [2], the system named is larvae of the mustard beetle (Phaedon cochleariae). The experiment in a line: Phaedon test (PHAECO spray treatment). It is filed as in vivo. Particulars: Chinese cabbage discs, after 7 days; for efficacy: 500 g/ha; for pest or weed control at 500 g/ha: Phaedon cochleariae, 168 h, read-out: efficacy. The protocol:
Phaedon Test ([…] Spray Treatment) Solvent: 78.0 parts by weight of acetone • • 1.5 parts by weight of dimethylformamide Emulsifier: 0.5 part by weight of alkylaryl polyglycol ether To prepare an appropriate active ingredient preparation, 1 part by weight of active ingredient is mixed with the stated amounts of solvent and emulsifier, and the concentrate is diluted with emulsifier-containing water to the desired concentration. Discs of Chinese cabbage (Brassica pekinensis) are sprayed with an active ingredient preparation of the desired concentration and, after drying, populated with larvae of the mustard beetle (Phaedon cochleariae). After 7 days, the efficacy in % is determined. 100% means that all beetle larvae have been killed; 0% means that none of the beetle larvae have been killed.

Data set [3] concerns caterpillars of the armyworm (Spodoptera frugiperda). The experiment in a line: Spodoptera frugiperda test (SPODFR spray treatment). Type of data set: in vivo. Particulars: maize leaf discs, after 7 days; for efficacy: 500 g/ha; for pest or weed control at 500 g/ha: Spodoptera frugiperda, foliar, 168 h, read-out: efficacy. The protocol:
Spodoptera frugiperda Test (SPODFR Spray Treatment) Solvent: 78.0 parts by weight of acetone • • 1.5 parts by weight of dimethylformamide Emulsifier: 0.5 part by weight of alkylaryl polyglycol ether To prepare an appropriate active ingredient preparation, 1 part by weight of active ingredient is mixed with the stated amounts of solvent and emulsifier, and the concentrate is diluted with emulsifier-containing water to the desired concentration. Discs of maize leaves (Zea mays) are sprayed with an active ingredient preparation of the desired concentration and, after drying, populated with caterpillars of the armyworm (Spodoptera frugiperda). After 7 days, the efficacy in % is determined. 100% means that all caterpillars have been killed; 0% means that none of the caterpillars have been killed.

The subject of data set [4] is red spider mite (Tetranychus urticae). The experiment in a line: Tetranychus test, OP-resistant (TETRUR spray treatment). It is filed as in vivo. Conditions: 500 g/ha, bean leaf discs, after 6 days; for pest or weed control at 500 g/ha: Tetranychus urticae, foliar, 144 h, read-out: efficacy. The protocol:
Tetranychus Test, OP-Resistant (TETRUR Spray Treatment)
Solvent: 78.0 parts by weight of acetone • • 1.5 parts by weight of dimethylformamide
Emulsifier: 0.5 part by weight of alkylaryl polyglycol ether
To prepare an appropriate active ingredient preparation, 1 part by weight of active ingredient is mixed with the stated amounts of solvent and emulsifier, and the concentrate is diluted with emulsifier-containing water to the desired concentration. Discs of bean leaves (Phaseolus vulgaris) infested by all stages of the red spider mite (Tetranychus urticae) are sprayed with an active ingredient preparation of the desired concentration. After 6 days, the efficacy in % is determined. 100% means that all spider mites have been killed; 0% means that none of the spider mites have been killed.

For data set [5], the system named is green peach aphid (Myzus persicae). The data set is described as follows: Myzus test (MYZUPE spray treatment). It is filed as in vivo. Conditions: Chinese cabbage discs, after 6 days; for efficacy: 500 g/ha; for pest or weed control at 500 g/ha: Myzus persicae, 144 h, read-out: efficacy. On the procedure:
Myzus Test (MYZUPE Spray Treatment) Solvent: 78 parts by weight of acetone • • 1.5 parts by weight of dimethylformamide Emulsifier: 0.5 part by weight of alkylaryl polyglycol ether To prepare an appropriate active ingredient preparation, 1 part by weight of active ingredient is mixed with the stated amounts of solvent and emulsifier, and the concentrate is diluted with emulsifier-containing water to the desired concentration. Discs of Chinese cabbage (Brassica pekinensis) infested by all stages of the green peach aphid (Myzus persicae) are sprayed with an active ingredient preparation of the desired concentration. After 6 days, the efficacy in % is determined. 100% means that all of the aphids have been destroyed; 0% means that none of the aphids have been destroyed.

The next data set has as its system Boophilus microplus. The experiment in a line: Boophilus microplus test (BOOPMI injection). Type of data set: in vivo. Particulars: 20 μg animal; injection into the abdomen; after 7 days, laying of fertile eggs. The protocol: Boophilus microplus Test (BOOPMI Injection) Solvent: dimethyl sulphoxide To prepare an appropriate active ingredient formulation, 10 mg of active ingredient are mixed with 0.5 ml of solvent and the concentrate is diluted with solvent to the desired concentration. The active ingredient solution is injected into the abdomen (Boophilus microplus), and the animals are transferred into dishes and stored in a climate-controlled room. The efficacy is assessed by laying of fertile eggs. After 7 days, the efficacy in % is determined. 100% means that none of the ticks has laid any fertile eggs.

Setting [6] is: pH 2.7, * LC-MS, acidic range pH 2.7, 0.1% aqueous formic acid and acetonitrile.

The structures appear in SMILES notation. Read-outs that look alike come from different tables or passages of the source.

Regarding `COc1nccnc1-n1nc(C(F)(F)F)c(-c2cc(F)c(OC)c(Cl)c2)c1N` [Ex. 124], in data set [1] (*** LC-MS, neutral range pH 7.8, 0.001 molar aqueous ammonium hydrogencarbonate and acetonitrile), the “log P” value is recorded as 3.5***;. Further, the figures for the efficacy in data set [2], in data set [3] and in data set [4] were 100%, 100% and 90%, respectively.

With `COc1nccnc1-n1nc(C(C)(C)F)c(-c2cc(Cl)cc(Cl)c2)c1N` [Ex. 168], the efficacy in data set [5], in data set [2], in data set [3] and in data set [4] was 100% each time.

Take `COc1nccnc1-n1nc(C(F)(F)Cl)c(-c2cc(Cl)c3c(c2)OCO3)c1N` [Ex. 169]: in data set [1] (setting [6]), the chromatographic logP is 3.26. The pest or weed control at 500 g/ha in data set [5], in data set [2], in data set [3] and in data set [4] was 100% in each case.

`C=CCN(CC=C)c1c(-c2cc(Cl)cc(C(F)(F)F)c2)c(C(F)(F)F)nn1-c1nccnc1OC` [Ex. 103] returned an efficacy in data set [5] of 80%.

With `CCOc1nccnc1-n1nc(CC)c(-c2cc(Cl)c3c(c2)OCO3)c1N` [Ex. 170], the chromatographic logP in data set [1] (setting [6]) worked out at 2.96. The pest or weed control at 500 g/ha in data set [5], in data set [2], in data set [3] and in data set [4] was 100% in each case.

For the molecule `CSc1nccnc1-n1nc(C(F)(F)F)c(-c2cc(Cl)cc(C(F)(F)F)c2)c1N` [Ex. 28], the “log P” value in data set [1] (* LC-MS, acidic range pH 2.7, 0.1% aqueous formic acid and acetonitrile) is recorded as 4.9*. Also, the efficacy (in the data set on Boophilus microplus; in data set [2]; in data set [3]) was 100% each time.

Consider `COc1nccnc1-n1nc(C(F)(F)F)c(-c2cc(Cl)cc(C(F)(F)F)c2)c1NCc1ccccc1` [Ex. 33], for which the figures for the efficacy in data set [5], in data set [2] and in data set [4] were 80%, 100% and 90%, respectively.

As to `COc1nccnc1-n1nc(C(F)(F)F)c(-c2cc(C#N)c3c(c2)OCO3)c1N` [Ex. 150], in data set [1] (setting [6]), the chromatographic logP is 2.66. In addition, the pest or weed control at 500 g/ha in data set [5], in data set [2], in data set [3] and in data set [4] was 100% in each case.

Regarding `COc1nccnc1-n1nc(C(F)(F)F)c(-c2cc(Br)c3c(c2)OCO3)c1N` [Ex. 74], the chromatographic logP in data set [1] (setting [6]) stood at 3.18. For the same molecule, the pest or weed control at 500 g/ha in data set [5] amounted to 90%; in data set [2], 100%; in data set [3] it was 100%; in data set [4], 90%.

Consider `CCCOc1nccnc1-n1nc(C(F)(F)F)c(-c2ccc(Br)cc2)c1N` [Ex. 4], for which the chromatographic logP in data set [1] (pH 2.3, ** acidic range pH 2.3, 0.1% aqueous phosphoric acid and acetonitrile) came out at 4.11. For the same molecule, the pest or weed control at 500 g/ha came to 83% in data set [2] and 90% in data set [4].

On to `CCOc1nccnc1-n1nc(C(F)(F)F)c(-c2cc(C#N)c3c(c2)OCO3)c1N` [Ex. 172], for which the chromatographic logP in data set [1] (setting [6]) amounted to 3.01. Further, the pest or weed control at 500 g/ha in data set [5], in data set [2], in data set [3] and in data set [4] was 100% in each case.

As to `COc1nccnc1-n1nc(C(F)(F)C(F)F)c(-c2cc(Cl)cc(C(F)(F)F)c2)c1N` [Ex. 59], the efficacy in data set [5] came to 100%; in data set [2] it was 100%; in data set [3] it was 83%; in data set [4], 100%.

Take `CCC(OC)c1nn(-c2nccnc2OC)c(N)c1-c1ccc(Cl)c(Cl)c1` (centres unmarked) [Ex. 3]: the efficacy (in the data set with Boophilus microplus; in data set [2]; in data set [4]) was 100% throughout.

For `C=C(C)c1nn(-c2nccnc2OC)c(N)c1-c1cc(Cl)cc(Cl)c1` [Ex. 167], the efficacy in data set [5], in data set [2] and in data set [4] was 100% each time.

Turning to `COc1nccnc1-n1nc(C(F)(F)F)c(-c2cc(F)c3c(c2)OCO3)c1N` [Ex. 174], the chromatographic logP in data set [1] (setting [6]) amounted to 2.91. Further, the pest or weed control at 500 g/ha in data set [5], in data set [2], in data set [3] and in data set [4] was 100% in each case.

The values are drawn from patent US8513260B2, “Pyrazinylpyrazoles” (Bayer CropScience AG, priority 2009, dated 2013).
